Measurements from patent publication US20100248229A1, “INVITRO HUMAN EMBRYONIC MODEL AND A METHOD THEREOF” (Stempeutics Research Private Limited, priority 2007, published 2010).
“Also recorded” adds a separate entry of the source.

How the values were obtained:
Type in all cases: cell-based, human
EBs [1] = assay: Methylation specific PCR (MSP) and mRNA expression of epigenetically regulated genes in EBs; settings: 48 hrs, 5 ug/ml
Description: Methylation status of several of the epigenetically regulated genes and the imprinted genes in response to exposure to various compounds/drugs or biologicals were screened.

[2] = tested on: EBs derived from hESC line HUES9; assay: Cell counting: DAPI stained nuclei per EB; settings: 12.5 pg/ml for 48 hrs
Experimental: Immunofluorescence and Cell counting: HESCs were grown on coverslips coated with MEFs and then fixed with 4% paraformaldehyde and 5% sucrose (Sigma) followed by permeabilization in 0.2% Triton X100 (Sigma). The slides were then incubated with primary antibodies 1:500 dilution of SSEA4 (Chemicon, Calif., USA), 5 ug/ml Nanog (Santa Cruz Biotechnology, CA, USA), 10 μg/ml Brachury (R&D Systems Inc. Minneapolis, USA), and 1.5 μg/ml HMGB1 (Sigma) overnight at 4° C. After washing thrice with PBS, fluorescein isothiocyanate/Texas red-labeled Secondary antibodies against the primary goat/rabbit/mouse were added as 1:500 dilutions and incubated for 2 hours. DAPI (Sigma) was used for nuclear staining and then washed with PBS. The negative controls were done without primary antibodies. Slides were mounted with DABCC (Sigma) and images were acquired using Nikon Eclipse 90i microscope (Nikon Corporation, Japan) and Image-Pro Express software (Media Cybernetics, Inc, Silver Spring, Md.). The results were then compared with the control cells (non-LPS treated EBs). To count the number of cells per EB, the number of DAPI stained nuclei were counted in 10 each of the control and LPS treated EBs.
Cell numbers and DNA fragmentation: For a count of the average number of cells per EB, the DAPI stained nuclei were counted in individual control and LPS treated EBs under epifluorescence. […]

EBs [3] = assay: In vitro 3-D embryo implantation model: attachment and outgrowth of EBs
Description: An in vitro 3-dimensional (3-D) model/system for embryo implantation employing EBs in place of embryos was developed. The EBs collected on different days were subjected to implantation/attachment on the artificial substratum/surface.
To make this artificial surface regular tissue culture dishes or organ culture dishes were coated with about 1 to 2 mm thick coating of 0.5 to 1% low melting or high melting agarose in DPBS. A few wells of about 1 to 2 mm diameter are created using sterile paper disks, preferable in the center of the dish, which were removed after the agarose solidifies. Alternatively a horizontal tube like structure can be created by casting the gel over a fine glass capillary, which can be withdrawn as the agarose solidifies. This cavity/depression or tube like structure of agarose is then coated with matrix proteins like matrigel, collagen, fibronectin, laminin, gelatin etc. The coated agarose dishes were also layered with mouse or human endometrial stromal cells obtained from primary cultures or cell lines. The EBs were placed carefully in the cavity created or flushed inside the tube using a bent pasture pipette. The cells were cultured in normal standard EB media.
The EBs adhere and outgrows spreading out as a monolayer of cells on the extracellular matrix. Some cells invaded the surrounding agarose by day 10. A failure to implant/outgrow within ten days on this matrix after exposure to the drug/molecule indicates an abnormality. However, some drugs/could also support/enhance the process of attachment and outgrowth of the EBs. These molecules were screened for several other possible applications, though these may not necessarily be safe for embryonic development.
Four day old EBs were cultured on agarose and fibronectin coated surfaces. […] However, as Y27632 supports and enhances outgrowth, the effect of this drug on the expression profiles of the lineage markers and other genes needs to be screened for evaluating effect on normal development.
The model consists of a culture plate which is coated with Low melting (0.5%) agarose, A well of various depths is created in the agarose by various means eg: putting sterile filter paper disks while casting the gel and removing them latter. The gel is then coated with extracellular matrix components like fibronectin, collagen, laminin, etc. Human endometrial stromal fibroblast cell line CRL4003 is grown on this extracellular matrix as a monolayer. The spherical embryoid bodies or embryo like entities at day 4.5 are injected or pipetted into these cavities. The attachment is allowed in a culture media regularly used for hESC culture, without FGF2 supplementation (FIG. 1).
3. Lineage induction studies: The embryoid bodies after attachment to the implantation site differentiates to all lineages.
Method: Spherical Cytic EBs were collected on day 4.5 and exposed to the continuous presence of Y27632 (various doses were used). […] The control cytic EB had however just attached with smaller area of outgrowth showing that this dose of Y27632 can help in initial implantation of embryo during pregnancy.

[4] = tested on: EBs derived from hESC line HUES9; assay: RT-PCR of germ lineage markers and HMGB1 in LPS-exposed HUES9 EBs
Description: EBs derived from the human embryonic stem cell (hESC) line HUES9 were exposed to 12.5 pg/ml of LPS for 48 hrs. The expression profile of the ectoderm, endoderm, mesoderm and trophectoderm lineage markers like βIII-tubulin, GATA4, BMP2, Brachury and β-hCG were studied, by RT-PCR and Immunofluorescence. Inhibition of mesoderm induction was confirmed by RT-PCR analysis for hANP, cTnT, ABCG2, GATA2, BMP4 and HAND1. Osteoblast differentiation was induced in the EBs, and confirmed by von Kosa and Alizarin red staining. A comet assay was also done to assess the degree of apoptosis in these EBs.
Exposure of EBs to LPS: EBs at day-2.5 were exposed to 12.5 pg/ml of Endotoxin/lipopolysaccharide (LPS) (Sigma) for 48 hrs supplemented in culture medium. The normal and the endotoxin treated EBs were harvested on day 4.5. Post exposure, the control and endotoxin treated EBs were divided in two groups. One group was lysed in TRIZOL for RNA isolation and the other group was fixed in 4% paraformaldehyde for immunofluorescence. The expression profile of the ectoderm, endoderm, mesoderm and trophectoderm lineage markers like PHI-tubulin, GATA4, BMP2, Brachury and β-hCG etc. were studied by RT-PCR and Immunofluorescence. The expression of the LPS-inducible and pluripotency related DNA binding protein HMGB1 was also studied in both the control and treated EBs.
RT-PCR: Total RNA from cells was isolated using TRIZOL-LS Reagent (Invitrogen) as per the manufacturer's protocol. Complementary DNA was synthesized using the SuperScript III First-Strand Synthesis System (Invitrogen) as per the manufacturer's instructions. Polymerase Chain Reaction (PCR) was carried out using 1U Tag DNA Polymerase (Sigma) and MgCl2 to a final concentration of 1.5 mM in a total volume of 25 μl/reaction. β-actin and GAPDH were used as the housekeeping controls. PCR cycles consisted of an initial denaturation at 95° C. for 5 minutes followed by 35 amplification cycles of denaturation at 94° C. for 45 seconds, annealing for 45 seconds, and extension at 72° C. for 45 seconds and final extension at 72° C. for 10 minutes.

[5] = 12.5 pg/ml for 48 hrs, EBs harvested day 4.5

lipopolysaccharide [LPS]
mRNA expression of SDHD, DYPS and CDH1 (EBs [1]; control EBs positive): negative mRNA expression/silencing
methylation status of SDHD, DYPS and CDH1 (MSP after bisulphite treatment) (EBs [1]; control: one of the alleles methylated): both the alleles of these genes were methylated
average number of cells per EB, treated vs control [2]: not significantly different
average number of cells/EB (mean±SD) ([2]; control 142.33±48.41): 175±75.47 cells/EB
attachment and outgrowth of EBs (EBs [3]; four day old EBs on agarose and fibronectin coated surfaces, 15 pg/ml and above): completely inhibited
degeneration, attachment and outgrowth of EBs in implantation model (EBs [3]; high dose, 48 hrs): degeneration of the EBs, and they failed to attach and outgrow
ability of attached EBs to give rise to all lineages (EBs [3]; lineage induction studies, in presence of the compound): compromised
expression of mesoderm markers (Brachury, BMP2, hANP, cTnT, ABCG2, GATA2, BMP4, HAND1) ([4]; 12.5 pg/ml for 48 hrs): no expression; also recorded: selectively silenced; also recorded: specific silencing
mRNA expression of HMGB1, βIII-tubulin, GATA4 and β-hCG [4, 5]: positive mRNA expression
mRNA expression of mesoderm markers BMP4, GATA2, ABCG2, cTnT, hANP and HAND1 [4, 5]: absence of mRNA expressions
mRNA expression of mesoderm markers Brachury and BMP2 [4, 5]: no mRNA expressions
HMGB1 expression in EBs ([4]; 12.5 pg/ml for 48 hrs, not expressed in normal EBs): positive or induced expression; also recorded: induced
functional mesoderm formation in EBs ([4]; exposure for 48 hrs): inhibited
